# Assay results reported in US8263606B2 (Xenon Pharmaceuticals Inc., priority 2008, dated 2012).
# What was measured:
# CYP3A4 = CYP3A4 (Homo sapiens, UniProt P08684); test: Cytochrome P450 (CYP450) Inhibition Assay, CYP3A4 (Vivid fluorescence, BOMCC substrate); settings: human, P450 Baculosomes (recombinant CYP3A4), probe BOMCC (Vivid substrate)
# Sequence of CYP3A4 (P08684 whole entry): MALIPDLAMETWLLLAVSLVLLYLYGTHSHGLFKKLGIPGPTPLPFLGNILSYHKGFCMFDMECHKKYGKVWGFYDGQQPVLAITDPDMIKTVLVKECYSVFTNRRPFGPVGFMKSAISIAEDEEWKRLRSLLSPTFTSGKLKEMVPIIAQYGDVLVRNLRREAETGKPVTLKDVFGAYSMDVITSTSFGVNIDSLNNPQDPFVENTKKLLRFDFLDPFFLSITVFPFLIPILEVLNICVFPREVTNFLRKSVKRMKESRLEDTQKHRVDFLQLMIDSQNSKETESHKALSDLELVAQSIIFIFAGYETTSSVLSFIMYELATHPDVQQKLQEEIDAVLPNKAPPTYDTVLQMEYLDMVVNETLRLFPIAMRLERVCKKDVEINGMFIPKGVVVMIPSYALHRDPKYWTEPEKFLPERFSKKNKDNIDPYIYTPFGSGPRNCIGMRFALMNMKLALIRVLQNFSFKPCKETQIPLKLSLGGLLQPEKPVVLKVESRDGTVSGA
Structure (SMILES),melting point,inhibition at 10 µM (CYP3A4)
"CN1C(=O)C2(COc3cc4c(cc32)OCCO4)c2c(NS(C)(=O)=O)cccc21 (centres unmarked) [Example 16.22, N-(1′-methyl-2′-oxo-1′,2,2′,3-tetrahydrospiro[furo[2,3-g][1,4]benzodioxine-8,3′-indol]-4′-yl)methanesulfonamide]",184 to 186 °C,< 50%
"O=C1Nc2cccc(-c3ccoc3)c2[C@]12COc1cc3c(cc12)OCO3 [Example 16.65, (7S)-4′-furan-3-ylspiro[furo[2,3-f][1,3]benzodioxole-7,3′-indol]-2′(1′H)-one]",230 to 231 °C,> 50%
"CN1C(=O)C2(COc3cc4c(cc32)OCCO4)c2c(NC(=O)C(C)(C)C)cccc21 (centres unmarked) [Example 16.31, 2,2-dimethyl-N-(1′-methyl-2′-oxo-1′,2,2′,3-tetrahydrospiro[furo[2,3-g][1,4]benzodioxine-8,3′-indol]-4′-yl)propanamide]",182 to 184 °C,< 50%
"Nc1cccc(CN2C(=O)C3(COc4cc5c(cc43)OCCO5)c3ccccc32)n1 (centres unmarked) [Example 34, 1′-[(6-aminopyridin-2-yl)methyl]-2,3-dihydrospiro[furo[2,3-g][1,4]benzodioxine-8,3′-indol]-2′(1′H)-one]",240 to 241 °C,> 50%
"CC(=O)Nc1cccc2c1C1(COc3cc4c(cc31)OCCO4)C(=O)N2C (centres unmarked) [Example 16.25, N-(1′-methyl-2′-oxo-1′,2,2′,3-tetrahydrospiro[furo[2,3-g][1,4]benzodioxine-8,3′-indol]-4′-yl)acetamide]",182 to 184 °C,< 50%
"CN1C(=O)C2(COc3cc4c(cc32)OCCO4)c2c(NC(=O)NC3CCCC3)cccc21 (centres unmarked) [Example 16.36, 1-cyclopentyl-3-(1′-methyl-2′-oxo-1′,2,2′,3-tetrahydrospiro[furo[2,3-g][1,4]benzodioxine-8,3′-indol]-4′-yl)urea]",133 to 135 °C,< 50%
"CN1C(=O)C2(COc3cc4c(cc32)OCCO4)c2c(N)cccc21 (centres unmarked) [Example 16.19, 4′-amino-1′-methyl-2,3-dihydrospiro[furo[2,3-g][1,4]benzodioxine-8,3′-indol]-2′(1′H)-one]",252 to 254 °C,< 50%
"CN1C(=O)C2(COc3cc4c(cc32)OCCO4)c2c(C(=O)NCc3ccc(F)cc3)cccc21 (centres unmarked) [Example 16.44, N-(4-fluorobenzyl)-1′-methyl-2′-oxo-1′,2,2′,3-tetrahydrospiro[furo[2,3-g][1,4]benzodioxine-8,3′-indole]-4′-carboxamide]",149 to 150 °C,< 50%
"Cc1noc(C)c1-c1cccc2c1C1(COc3cc4c(cc31)OCCO4)C(=O)N2C (centres unmarked) [Example 16.75, 4′-(3,5-dimethylisoxazol-4-yl)-1′-methyl-2,3-dihydrospiro[furo[2,3-g][1,4]benzodioxine-8,3′-indol]-2′(1′H)-one]",228 to 230 °C,> 50%

# Further lines, results first:
melting point,inhibition at 10 µM (CYP3A4),Structure (SMILES)
219 to 220 °C,> 50%,"Cc1nc(-c2cccc3c2C2(COc4cc5c(cc42)OCCO5)C(=O)N3C)cs1 (centres unmarked) [Example 25, 1′-methyl-4′-(2-methyl-1,3-thiazol-4-yl)-2,3-dihydrospiro[furo[2,3-g][1,4]benzodioxine-8,3′-indol]-2′(1′H)-one]"
166 to 168 °C,> 50%,"COc1cccc(Oc2cccc3c2C2(COc4cc5c(cc42)OCCO5)C(=O)N3C)c1 (centres unmarked) [Example 16.79, 4′-(3-methoxyphenoxy)-1′-methyl-2,3-dihydrospiro[furo[2,3-g][1,4]benzodioxine-8,3′-indol]-2′(1′H)-one]"
151 to 153 °C,< 50%,"CCCCCC(=O)Nc1cccc2c1C1(COc3cc4c(cc31)OCCO4)C(=O)N2C (centres unmarked) [Example 16.32, N-(1′-methyl-2′-oxo-1′,2,2′,3-tetrahydrospiro[furo[2,3-g][1,4]benzodioxine-8,3′-indol]-4′-yl)hexanamide]"
178 to 180 °C,> 50%,"CN1C(=O)C2(COc3cc4c(cc32)OCCO4)c2c(-c3ccoc3)cccc21 (centres unmarked) [Example 16.68, 4′-furan-3-yl-1′-methyl-2,3-dihydrospiro[furo[2,3-g][1,4]benzodioxine-8,3′-indol]-2′(1′H)-one]"
> 250 °C,> 50%,"CN1C(=O)C2(COc3cc4c(cc32)OCCO4)c2c(Oc3ncccc3C(F)(F)F)cccc21 (centres unmarked) [Example 16.55, 1′-methyl-4′-{[3-(trifluoromethyl)pyridin-2-yl]oxy}-2,3-dihydrospiro[furo[2,3-g][1,4]benzodioxine-8,3′-indol]-2′(1′H)-one]"
199 to 201 °C,< 50%,"Cc1nc(-c2cccc3c2C2(COc4cc5c(cc42)OCCO5)C(=O)N3C)no1 (centres unmarked) [Example 16.74, 1′-methyl-4′-(5-methyl-1,2,4-oxadiazol-3-yl)-2,3-dihydrospiro[furo[2,3-g][1,4]benzodioxine-8,3′-indol]-2′(1′H)-one]"
229 to 231 °C,> 50%,"O=C1Nc2cccc(-c3ccoc3)c2[C@@]12COc1cc3c(cc12)OCO3 [Example 16.66, (7R)-4′-furan-3-ylspiro[furo[2,3-f][1,3]benzodioxole-7,3′-indol]-2′(1′H)-one]"
196 to 197 °C,< 50%,"CN1C(=O)C2(COc3cc4c(cc32)OCCO4)c2c(C#N)cccc21 (centres unmarked) [Example 16.71, 1′-methyl-2′-oxo-1′,2,2′,3-tetrahydrospiro[furo[2,3-g][1,4]benzodioxine-8,3′-indole]-4′-carbonitrile]"
135 to 136 °C,< 50%,"CN1C(=O)C2(COc3cc4c(cc32)OCCO4)c2c(C(=O)NC3CCCC3)cccc21 (centres unmarked) [Example 16.39, N-cyclopentyl-1′-methyl-2′-oxo-1′,2,2′,3-tetrahydrospiro[furo[2,3-g][1,4]benzodioxine-8,3′-indole]-4′-carboxamide]"
266 to 268 °C,< 50%,"CN1C(=O)C2(COc3cc4c(cc32)OCCO4)c2c(NC(=O)C3CC3)cccc21 (centres unmarked) [Example 16.26, N-(1′-methyl-2′-oxo-1′,2,2′,3-tetrahydrospiro[furo[2,3-g][1,4]benzodioxine-8,3′-indol]-4′-yl)cyclopropanecarboxamide]"
243 to 245 °C,< 50%,"Nc1cccc2c1C1(COc3cc4c(cc31)OCCO4)C(=O)N2Cc1ncccc1C(F)(F)F (centres unmarked) [Example 16.50, 4′-amino-1′-{[3-(trifluoromethyl)pyridin-2-yl]methyl}-2,3-dihydrospiro[furo[2,3-g][1,4]benzodioxine-8,3′-indol]-2′(1′H)-one]"
167 to 168 °C,> 50%,"O=C1N(Cc2cc3ccccc3o2)c2ccccc2C12COc1cc3c(cc12)OCO3 (centres unmarked) [Example 1.8, 1′-(1-benzofuran-2-ylmethyl)spiro[furo[2,3-f][1,3]-benzodioxole-7,3′-indol]-2′(1′H)-one]"
250 to 251 °C,< 50%,"CN1C(=O)C2(COc3cc4c(cc32)OCCO4)c2c(-c3cn[nH]c3)cccc21 (centres unmarked) [Example 16.69, 1′-methyl-4′-(1H-pyrazol-4-yl)-2,3-dihydrospiro[furo[2,3-g][1,4]benzodioxine-8,3′-indol]-2′(1′H)-one]"
